These results are taken from patent US7820650B2, “Antifungal 4-substituted 5,6-dihydro-4H-pyrrolo [1,2-a][1,4]benzodiazepines” (Janssen Pharmaceutica NV, priority 2000, dated 2010).

Holding throughout (test): Determination of fungal susceptibility (MIC, microdilution in CYG medium)
Holding throughout (type): cell-based

For one assay, the system named is Microsporum canis. To be noted: single isolate, 5 days at 30° C., growth (OD 405 nm) inhibited to 35% of control or less. On the procedure: (§1) A panel single isolates of the dermatophytes Sporothrix schenckii; Microsporum canis; Trichophyton rubrum; Trichophyton mentagrophyte; Candida parapsilosis; Cryptococcus neoformans; and Aspergillus fumigatus were used to evaluate the activity of the test compounds in vitro. Inocula were prepared as broth cultures (yeasts) or as suspensions of fungal material made from agar slope cultures (moulds). The test compounds were pipetted from dimethylsulfoxide stock solution into water to provide a series of 10-fold dilutions. The fungal inocula were suspended in the growth medium CYG (F.C. Odds, Journal of Clinical Microbiology, 29, 2735-2740, 1991) at approximately 50,000 colony-forming units (CFU) per ml and added to the aqueous test drugs. The cultures were set up in the 96 wells of plastic microdilution plates and they were incubated for 2 days at 37° C. (Candida spp.) or for 5 days at 30° C. (other fungi). Growth in the microcultures was measured by their optical density (OD) measured at a wavelength of 405 nm. The OD for cultures with test compounds was calculated as a percentage of the OD for control cultures, i.e. the OD for cultures without test compounds. Inhibition of growth to 35% of control or less was recorded as significant inhibition. Minimal inhibitory concentration (MIC; in 10^−6 M) of some of the compounds of formula (I) for the tested species are listed in Table.

The next assay relates to Aspergillus fumigatus. To be noted: single isolate, 5 days at 30° C., growth (OD 405 nm) inhibited to 35% of control or less. On the procedure:
as §1

Another assay deals with Trichophyton rubrum. To be noted: single isolate, 5 days at 30° C., growth (OD 405 nm) inhibited to 35% of control or less. On the procedure: as §1
For another assay, the system named is Cryptococcus neoformans. To be noted: single isolate, 5 days at 30° C., growth (OD 405 nm) inhibited to 35% of control or less. Here is the method:
as §1

In the next assay the test system is Candida parapsilosis. To be noted: single isolate, 2 days at 37° C., growth (OD 405 nm) inhibited to 35% of control or less. On the procedure: as §1
The subject of assay [1] is Trichophyton mentagrophytes. To be noted: single isolate, 5 days at 30° C., growth (OD 405 nm) inhibited to 35% of control or less. On the procedure: as §1
The subject of a further assay is Sporothrix schenckii. The conditions noted are these: single isolate, 5 days at 30° C., growth (OD 405 nm) inhibited to 35% of control or less. On the procedure:
as §1

A value given as a limit tells only on which side of the number the result lay.

Take `CCc1ccc(C2=NCc3ccccc3-n3cccc32)cc1` [Comp. 21]: the “MIC values, Microsporum canis” value in the assay on Microsporum canis was 0.32 10^−6 M. Moreover, in the assay with Aspergillus fumigatus, the “MIC values, Aspergillus fumigatus” value is reported as 1 10^−6 M. In the assay on Trichophyton rubrum, the “MIC values, Trichophyton rubrum” value is 0.03 10^−6 M. In the assay on Cryptococcus neoformans, the “MIC values, Cryptococcus neoformans” value is recorded as >10 10^−6 M. Also, the “MIC values, Candida parapsilosis” value with Candida parapsilosis is reported as 3.2 10^−6 M. In assay [1], the “MIC values, Trichophyton mentagrophytes” value is 0.32 10^−6 M. The “MIC values, Sporothrix schenkii” value against Sporothrix schenckii is 10 10^−6 M.
As to `Br.CCc1ccc(C2NCc3c(Cl)cccc3-n3cccc32)cc1` (stereo not drawn) [Comp. 2], the “MIC values, Microsporum canis” value in the assay on Microsporum canis is listed as 0.32 10^−6 M. For the same molecule, the “MIC values, Aspergillus fumigatus” value with Aspergillus fumigatus is listed as 3.2 10^−6 M. The “MIC values, Trichophyton rubrum” value in the assay on Trichophyton rubrum is listed as 0.03 10^−6 M. Further, in the assay with Cryptococcus neoformans, the “MIC values, Cryptococcus neoformans” value is >10 10^−6 M. The “MIC values, Candida parapsilosis” value against Candida parapsilosis is reported as 1 10^−6 M. Moreover, the “MIC values, Trichophyton mentagrophytes” value in assay [1] was 0.32 10^−6 M. For the same molecule, the “MIC values, Sporothrix schenkii” value against Sporothrix schenckii is reported as >10 10^−6 M.
Consider `Br.Clc1cccc2c1CNC(c1ccsc1)c1cccn1-2` (stereo not drawn) [Comp. 12], for which the “MIC values, Microsporum canis” value with Microsporum canis is given as >10 10^−6 M. Besides, in the assay on Aspergillus fumigatus, the “MIC values, Aspergillus fumigatus” value was >10 10^−6 M. Also, in the assay with Trichophyton rubrum, the “MIC values, Trichophyton rubrum” value was 3.2 10^−6 M. Besides, the “MIC values, Cryptococcus neoformans” value against Cryptococcus neoformans is on record as >10 10^−6 M. For the same molecule, in the assay with Candida parapsilosis, the “MIC values, Candida parapsilosis” value is listed as >10 10^−6 M. The “MIC values, Trichophyton mentagrophytes” value in assay [1] is given as >10 10^−6 M. In addition, the “MIC values, Sporothrix schenkii” value with Sporothrix schenckii is listed as >10 10^−6 M.
